Active and inactive are the calls of the source.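 Rule for the calls: active = compounds giving half or more protection of infected cells from virus-caused growth loss, again on retest; inactive = the rest.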 Where a SMILES comes first, the peptide text is derived from it. The star is where a group is joined. Cbz = O=C(OCc1ccccc1)*
Test system: CEM cells HIV-1 protection, formazan growth assay
Assay: NCI AIDS Antiviral Assay
Settings: for IC50: measured here: growth of uninfected CEM cells
Procedure, shortened: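 CEM (human) cells, HIV-1 infected vs uninfected, 5-point dosing, formazan growth read-out. Retest threshold 50% protection.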

**Q.** How did the EC50 turn out when COc1ccc(C2(CC(C)C)CCN(S(=O)(=O)c3ccc(C)cc3)C2)cc1OC (stereo not drawn) was run?
**A.** > 178 µM

**Q.** What about the IC50 of the same compound?
**A.** 20 µM

**Q.** What does the source list for C=CCC(NCc1ccccc1)[C@H](OCc1ccccc1)[C@@H]1COC(C)(C)O1 (stereo partly drawn)?
**A.** EC50: > 200 µM; IC50: > 200 µM

**Q.** Which EC50 does the source give for NS(=O)(=O)c1cc2c(cc1Cl)NC(C(=O)NNC(=O)c1ccncc1)=NS2(=O)=O here?
**A.** > 77.6 µM

**Q.** What about the IC50 of the same compound?
**A.** > 77.6 µM

**Q.** For O=C(O)/C=C/C(=O)Nc1ccccc1, which EC50 is on record?
**A.** > 200 µM

**Q.** What about the IC50 of the same compound?
**A.** > 200 µM

**Q.** COc1cc(C2C(Cl)C(=O)N2n2cnc3ccccc3c2=O)cc(OC)c1OC (stereo not drawn) was tested. Which EC50 did it give?
**A.** > 6.61 µM

**Q.** What about the IC50 of the same compound?
**A.** > 6.61 µM

**Q.** CC(=O)SCCCn1c(=O)n(CCCSC(C)=O)c(=O)n(CCCSC(C)=O)c1=O was tested. Which EC50 did it give?
**A.** > 200 µM

**Q.** And the IC50?
**A.** 12.3 µM

**Q.** With CCSC1=N/C(=C\c2ccco2)C(NN)=N1 as the compound, how does the EC50 read?
**A.** > 50.1 µM

**Q.** And the IC50?
**A.** > 50.1 µM

**Q.** For CCCCn1c(C)c(C)c2c1NN=C(C#N)S2(=O)=O, which EC50 is on record?
**A.** > 200 µM

**Q.** And the IC50?
**A.** > 200 µM

**Q.** How did the EC50 turn out when CCn1c2c(c3ccccc3c1=O)C(=O)c1ccccc1-2 was run?
**A.** > 26.3 µM

**Q.** And the IC50?
**A.** > 26.3 µM

**Q.** Which results are given for CCOC(=O)C(CC(CO)(C(C)=O)C(=O)OCC)C(C)=O (stereo not drawn)?
**A.** EC50: > 200 µM; IC50: 22.4 µM

**Q.** What does the source list for COc1cc(CSc2ccc(O)cc2)cc(O)c1O?
**A.** EC50: > 126 µM; IC50: 22.9 µM

**Q.** How did the outcome turn out when O=[N+]([O-])c1ccccc1S(=O)(=O)Oc1ccc(Cl)cc1 was run?
**A.** active

**Q.** CN(c1ccccc1)C1C(=O)N(c2ccccc2)C1/C=C/c1ccccc1 (stereo not drawn) was tested. Which outcome did it give?
**A.** inactive

**Q.** Which results are given for Cc1ccc2c(CC(=O)O)cc(=O)oc2c1C?
**A.** EC50: > 200 µM; IC50: 155 µM

**Q.** How did the EC50 turn out when CSc1nc2c(=O)oc(-c3ccccc3)nc2s1 was run?
**A.** > 200 µM

**Q.** What about the IC50 of the same compound?
**A.** 6.03 µM

**Q.** CCN(CC)CCn1c2c3ccccc3ccc2c2oc(=O)c3ccccc3c21 was tested. Which EC50 did it give?
**A.** > 16.2 µM

**Q.** And the IC50?
**A.** > 16.2 µM

**Q.** For O=C(OC(C(=O)O)C(OC(=O)c1ccccc1)C(=O)O)c1ccccc1 (stereo not drawn) (tested in a mixture with another compound), which EC50 is on record?
**A.** > 380 µM

**Q.** What about the IC50 of the same compound?
**A.** 0.912 µM

**Q.** What does the source list for COc1ccc(-c2coc3cc(O)cc(O)c3c2=O)cc1?
**A.** EC50: > 200 µM; IC50: 12.6 µM

**Q.** Which EC50 does the source give for O=C(NC(CCCCN1C(=O)c2ccccc2C1=O)P(=O)(Oc1ccccc1)Oc1ccccc1)OCc1ccccc1 (stereo not drawn) here?
**A.** > 200 µM

**Q.** And the IC50?
**A.** 95.5 µM

**Q.** For CCN1C[C@]2(C)CC[C@H](OC)C34C1C([C@H](OC(C)=O)[C@@H]32)[C@@]1(OC)C[C@H](OC)[C@H]2C[C@@H]4[C@@H]1[C@H]2O, which EC50 is on record?
**A.** > 77.6 µM

**Q.** What about the IC50 of the same compound?
**A.** > 77.6 µM

**Q.** For O=C(Cc1nc2ccccc2o1)C(=O)Nc1ccc(Cl)cc1Cl, which EC50 is on record?
**A.** > 7.76 µM

**Q.** And the IC50?
**A.** > 7.76 µM

**Q.** For COC(=O)C1=CC2C(=O)OC1C1C(=O)NC(=O)C21 (stereo not drawn), which outcome is on record?
**A.** inactive

**Q.** For CSc1nc(NC2OC(COC(C)=O)C(OC(C)=O)C(OC(C)=O)C2OC(C)=O)c(-c2csc(N)n2)c(=O)n1C (stereo not drawn), which outcome is on record?
**A.** inactive

**Q.** Which EC50 does the source give for Cc1cc(O)c(/C=N/c2nc(-c3ccc([N+](=O)[O-])cc3)cs2)c(=O)o1 here?
**A.** > 200 µM

**Q.** And the IC50?
**A.** > 200 µM

**Q.** For COc1cc(C(c2c(O)c3ccccc3oc2=O)c2c(O)c3ccccc3oc2=O)ccc1O, which EC50 is on record?
**A.** > 200 µM

**Q.** What about the IC50 of the same compound?
**A.** 56.2 µM

**Q.** Which EC50 does the source give for CC(=O)OCC1OC(OCC2OC(N3C(=S)N[C@H]([C@@H](O)[C@H](O)[C@H](O)CO)[C@H]3O)C(OC(C)=O)C(OC(C)=O)C2OC(C)=O)C(OC(C)=O)C(OC(C)=O)C1OC(C)=O (stereo partly drawn) here?
**A.** > 100 µM

**Q.** What about the IC50 of the same compound?
**A.** > 100 µM

**Q.** How did the EC50 turn out when N#Cc1nc(C#N)n(S(=O)(=O)c2ccccc2)c1NS(=O)(=O)c1ccccc1 was run?
**A.** > 200 µM

**Q.** What about the IC50 of the same compound?
**A.** > 200 µM

**Q.** What does the source list for COC(=O)C1=CN(C2CCCCC2)C2(c3ccccc3)c3ccccc3C(=O)OC(=O)C12 (stereo not drawn)?
**A.** EC50: 132 µM; IC50: > 200 µM

**Q.** For CN1CCN(CCn2c3c4ccccc4ccc3c3oc(=O)c4ccccc4c32)CC1, which EC50 is on record?
**A.** > 100 µM

**Q.** What about the IC50 of the same compound?
**A.** 3.02 µM

**Q.** With COC1(C)CC2N(C(=O)c3ccccc3)N=C(c3ccccc3)CC2(C)O1 (stereo not drawn) as the compound, how does the EC50 read?
**A.** > 100 µM

**Q.** What about the IC50 of the same compound?
**A.** > 100 µM

**Q.** What does the source list for CCOC(=O)CCC(NC(=O)C(CC(=O)OC)NC(=O)OCc1ccccc1)C(=O)NC(CC(=O)OC)C(=O)NC(CCC(=O)OCC)C(=O)NC(CC(=O)OC)C(=O)NC(CCC(=O)OCC)C(=O)NC(CC(=O)OCC)C(=O)OCC (stereo not drawn) (Cbz-D(OMe)E(OEt)D(OMe)E(OEt)D(OMe)E(OEt)D(OEt)-OEt; configuration not given here)?
**A.** EC50: > 200 µM; IC50: > 200 µM

**Q.** Oc1ccc2c(c1)OCC1(O)Cc3cc(O)c(O)cc3C21 (stereo not drawn) was tested. Which outcome did it give?
**A.** inactive

**Q.** With CN1CCOC(c2ccccc2)O1 (stereo not drawn) as the compound, how does the EC50 read?
**A.** > 251 µM

**Q.** And the IC50?
**A.** > 251 µM

**Q.** For CC(C)C(=O)C(C)(C)C(=O)C(C)(C)C(=O)OC(C)(C)C, which EC50 is on record?
**A.** > 200 µM

**Q.** And the IC50?
**A.** > 200 µM

**Q.** How did the outcome turn out when O=c1oc2c(ccc3occc32)c(N2CCCCC2)c1-c1ccccc1 was run?
**A.** inactive

**Q.** COc1ccc2c(c1OC)C13CCCC[C@H]1C(C2)[N+](C)(C)CC3 (stereo partly drawn) was tested. Which EC50 did it give?
**A.** > 562 µM

**Q.** And the IC50?
**A.** > 562 µM

**Q.** How did the EC50 turn out when Cc1ccc(S(=O)(=O)N2CCCSCCSCCCSCC2)cc1 was run?
**A.** > 17.8 µM

**Q.** And the IC50?
**A.** > 17.8 µM

**Q.** What does the source list for c1ccc2c(c1)c1c(n2CCOCCN2CCOCC2)CCCC1?
**A.** EC50: > 200 µM; IC50: 112 µM

**Q.** CCOC(=O)C1Cc2c(ccc(OC)c2OC)C(=O)C1N (stereo not drawn) was tested. Which outcome did it give?
**A.** inactive

**Q.** For N/N=C(/Cc1nc2ccc(C(=O)c3ccccc3)cc2[nH]c1=O)C(=O)Nc1ccc([N+](=O)[O-])cc1[N+](=O)[O-], which EC50 is on record?
**A.** > 50.1 µM

**Q.** And the IC50?
**A.** > 50.1 µM

**Q.** What does the source list for CN(C)CCC(O)(Cc1ccccc1)c1ccco1 (stereo not drawn)?
**A.** EC50: > 200 µM; IC50: 34.7 µM

**Q.** Which outcome does the source give for c1ccc(C2CCCNCC2)cc1 (stereo not drawn) here?
**A.** inactive

**Q.** Which results are given for CC(=O)OCC1OC(N2C(=O)NC(=O)C3C=C4CCCCC4=CC32)C(OC(C)=O)C1OC(C)=O (stereo not drawn)?
**A.** EC50: > 200 µM; IC50: > 200 µM

Reference: PubChem BioAssay AID179 (DTP/NCI, 2004)
